Data reported in publication PMC6905112, “CtcS, a MarR family regulator, regulates chlortetracycline biosynthesis” (BMC Microbiology, 2019).

Assays:
CtcS = target: T1, CtcS (Kitasatospora aureofaciens, UniProt S4S3A4); test: competitive EMSA, release of FAM-labelled ctcS-ctcR intergenic DNA probe; format: binding; details: His6-CtcS 40 ng, probe 40 ng, 20 uL, pH 8.0, 0.0015-5 mM compound
T1 sequence (S4S3A4 1-165): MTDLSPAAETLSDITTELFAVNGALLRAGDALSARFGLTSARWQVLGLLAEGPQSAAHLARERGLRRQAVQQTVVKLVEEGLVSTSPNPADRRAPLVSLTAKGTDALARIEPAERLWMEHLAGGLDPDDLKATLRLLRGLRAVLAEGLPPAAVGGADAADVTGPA

[1] = target: His6-tagged recombinant CtcS (Streptomyces aureofaciens F3); test: SEC; Superdex 200 10/300 column, AKTA FPLC P-920; ovalbumin (44 kD) and lysozyme (14 kD) as standards; purified His6-tagged CtcS

Row | stoichiometry N [1] | Molecule | competitive EMSA, release of FAM-labelled ctcS-ctcR intergenic DNA probe (CtcS)
1 |  | CN(C)[C@@H]1C(=O)C(C(N)=O)=C(O)[C@@]2(O)C(=O)C3=C(O)c4c(O)ccc(Cl)c4[C@@](C)(O)[C@H]3C[C@@H]12 [chlortetracycline] | the DNA-binding affinity of CtcS would be decreased by the presence of TC and CTC
2 |  | CN(C)[C@@H]1C(=O)C(C(N)=O)=C(O)[C@@]2(O)C(=O)C3=C(O)c4c(O)cccc4[C@@](C)(O)[C@H]3C[C@@H]12 [tetracycline] | the DNA-binding affinity of CtcS would be decreased by the presence of TC and CTC
3 | 2 | His6-tagged recombinant CtcS (natural protein) | 
